Reference: article PMC10689823, “Discovery of a Drug-like, Natural Product-Inspired DCAF11 Ligand Chemotype” (Nature Communications, 2023)

Target: BRD4S-TagBFP reporter (Homo sapiens, UniProt O60885)
Test: FACS-based CRISPR/Cas9 BRD4 protein stability screen
Experimental: The virus containing supernatant was cleared of cellular debris by filtration through a 0.45-µm PES filter and used to transduce KBM7 BRD4-BFP reporter cells harboring a doxycycline inducible Cas9 allele at a multiplicity of infection (MOI) of 0.05 and 1,000-fold library representation. Library-transduced cells were selected with G418 (1 mg ml^−1, Gibco) for 14 days, expanded and Cas9 expression was induced with DOX (0.4 µg ml^−1, PanReac AppliChem).
Cells were washed with and stored in FACS buffer (PBS containing 5% FBS and 1 mM EDTA) at 4 °C overnight. The next day, cells were strained trough a 35 µm nylon mesh and sorted on a BD FACSAria™ Fusion (BD Biosciences) using a 85 µm nozzle. Aggregates, dead (ZombieNIR positive), Cas9-negative (GFP) and sgRNA library-negative (Thy1.1-APC) cells were excluded, and the remaining cells were sorted based on their BRD4-BFP and mCherry levels into BRD4^HIGH (10% of cells), BRD4^MID (30%) and BRD4^LOW (10%) fractions. For each sample, cells corresponding to at least 2,000-fold library representation were sorted per replicate.
Next-generation sequencing (NGS) libraries of sorted cell fractions were prepared as previously described[25]. In brief, genomic DNA was isolated by cell lysis (10 mM Tris-HCl, 150 mM NaCl, 10 mM EDTA, 0.1% SDS), proteinase K treatment (New England Biolabs) and DNAse-free RNAse digest (Thermo Fisher Scientific), followed by two rounds of phenol extraction and 2-propanol precipitation. Isolated genomic DNA was subjected to several freeze–thaw cycles before nested polymerase chain reaction (PCR) amplification of the sgRNA cassette.
Barcoded NGS libraries for each sorted population were generated using a two-step PCR protocol using AmpliTaq Gold (Invitrogen). The resulting PCR products were purified using Mag-Bind® TotalPure NGS beads (Omega Bio-tek) and amplified in a second PCR introducing the standard Illumina adapters. The final Illumina libraries were bead-purified, pooled and sequenced on a HiSeq 3500 platform (Illumina).
Screen analysis was performed as previously described[25]. Briefly, sequencing reads were quantified using the crispr-process-nf Nextflow workflow, available at https://github.com/ZuberLab/crispr-process-nf/tree/566f6d46bbcc2a3f49f51bbc96b9820f408ec4a3. For statistical analysis, we used the crispr-mageck-nf Nextflow workflow, available at https://github.com/ZuberLab/crispr-mageck-nf/tree/c75a90f670698bfa78bfd8be786d6e5d6d4fc455. To calculate gene-level enrichment, the sorted populations (BRD4^HIGH or BRD4^LOW) were compared to the BRD4^MID populations in MAGeCK (0.5.9)[46], using median normalized read counts.

Work on `Cc1sc2c(c1C)C(c1ccc(Cl)cc1)=NC(CC(=O)NCCOCCOCCOCCOc1c(Br)cc(C=C3C(=O)Nc4ccc(Br)cc43)cc1Br)c1nnc(C)n1-2` (stereo not drawn) [Compound 10] yielded a Low_lfc (Gene FBXL18, Mageck_Gene level) of 0.15, a Low_logP (Gene FBXL18, Mageck_Gene level) of 0.58 and a High_lfc (Gene FBXL19, Mageck_Gene level) of -0.07. The High_logP (Gene FBXL19, Mageck_Gene level) was 0.17, the Low_lfc (Gene FBXL19, Mageck_Gene level) was 0.26 and the Low_logP (Gene FBXL19, Mageck_Gene level) was 0.97. It also gave a High_lfc (Gene FBXL20, Mageck_Gene level) of 0.09, a High_logP (Gene FBXL20, Mageck_Gene level) of 0.36 and a Low_lfc (Gene FBXL20, Mageck_Gene level) of -0.03. It also gave a Low_logP (Gene FBXL20, Mageck_Gene level) of 0.19, a High_lfc (Gene FBXL21, Mageck_Gene level) of 0.06 and a High_logP (Gene FBXL21, Mageck_Gene level) of 0.36. The Low_lfc (Gene FBXL21, Mageck_Gene level) was -0.13, the Low_logP (Gene FBXL21, Mageck_Gene level) was 0.07 and the High_lfc (Gene FBXL22, Mageck_Gene level) was 0.4. The Low_lfc (Gene FBXL22, Mageck_Gene level) was 0.39, the Low_logP (Gene FBXL22, Mageck_Gene level) was 1.13 and the High_lfc (Gene FBXO2, Mageck_Gene level) was 0.07. The High_logP (Gene FBXO2, Mageck_Gene level) was 0.12, the Low_lfc (Gene FBXO2, Mageck_Gene level) was -0.12 and the Low_logP (Gene FBXO2, Mageck_Gene level) was 0.08. The High_lfc (Gene FBXO10, Mageck_Gene level) was 0.07, the High_logP (Gene FBXO10, Mageck_Gene level) was 0.21 and the Low_lfc (Gene FBXO10, Mageck_Gene level) was -0.41. It also gave a Low_logP (Gene FBXO10, Mageck_Gene level) of 0.06, a High_lfc (Gene FBXO11, Mageck_Gene level) of -0.62 and a High_logP (Gene FBXO11, Mageck_Gene level) of 0. It also gave a Low_lfc (Gene FBXO11, Mageck_Gene level) of 0.03, a Low_logP (Gene FBXO11, Mageck_Gene level) of 0.18 and a High_lfc (Gene FBXO15, Mageck_Gene level) of -0.25. The High_logP (Gene FBXO15, Mageck_Gene level) was 0.04, the Low_lfc (Gene FBXO15, Mageck_Gene level) was -0.28 and the Low_logP (Gene FBXO15, Mageck_Gene level) was 0.22. For the same compound, the High_lfc (Gene FBXO16, Mageck_Gene level) was -0.06, the High_logP (Gene FBXO16, Mageck_Gene level) was 0.3 and the Low_lfc (Gene FBXO16, Mageck_Gene level) was -0.09. For the same compound, the Low_logP (Gene FBXO16, Mageck_Gene level) was 0.14, the High_lfc (Gene FBXO17, Mageck_Gene level) was -0.2 and the High_logP (Gene FBXO17, Mageck_Gene level) was 0.06. For the same compound, the Low_lfc (Gene FBXO17, Mageck_Gene level) was 0.03, the Low_logP (Gene FBXO17, Mageck_Gene level) was 0.49 and the High_lfc (Gene FBXO18, Mageck_Gene level) was -0.14. The High_logP (Gene FBXO18, Mageck_Gene level) was 0.12, the Low_lfc (Gene FBXO18, Mageck_Gene level) was 0.16 and the Low_logP (Gene FBXO18, Mageck_Gene level) was 0.25. For the same compound, the High_lfc (Gene FBXO21, Mageck_Gene level) was 0.22, the High_logP (Gene FBXO21, Mageck_Gene level) was 0.42 and the Low_lfc (Gene FBXO21, Mageck_Gene level) was 0. It also gave a Low_logP (Gene FBXO21, Mageck_Gene level) of 0.2, a High_lfc (Gene FBXO22, Mageck_Gene level) of -0.12 and a High_logP (Gene FBXO22, Mageck_Gene level) of 0.02. For the same compound, the Low_lfc (Gene FBXO22, Mageck_Gene level) was 0.34, the Low_logP (Gene FBXO22, Mageck_Gene level) was 0.76 and the High_lfc (Gene FBXO24, Mageck_Gene level) was -0.07. For the same compound, the High_logP (Gene FBXO24, Mageck_Gene level) was 0.15, the Low_lfc (Gene FBXO24, Mageck_Gene level) was 0.03 and the Low_logP (Gene FBXO24, Mageck_Gene level) was 0.43. The High_lfc (Gene FBXO25, Mageck_Gene level) was -0.22, the High_logP (Gene FBXO25, Mageck_Gene level) was 0.18 and the Low_lfc (Gene FBXO25, Mageck_Gene level) was -0.04. It also gave a Low_logP (Gene FBXO25, Mageck_Gene level) of 0.27, a High_lfc (Gene FBXO27, Mageck_Gene level) of -0.12 and a High_logP (Gene FBXO27, Mageck_Gene level) of 0.16. It also gave a Low_lfc (Gene FBXO27, Mageck_Gene level) of 0.09, a Low_logP (Gene FBXO27, Mageck_Gene level) of 0.72 and a High_lfc (Gene FBXO28, Mageck_Gene level) of 0.16. It also gave a High_logP (Gene FBXO28, Mageck_Gene level) of 0.49, a Low_lfc (Gene FBXO28, Mageck_Gene level) of -0.29 and a Low_logP (Gene FBXO28, Mageck_Gene level) of 0.02. It also gave a High_lfc (Gene FBXO30, Mageck_Gene level) of -0.1, a High_logP (Gene FBXO30, Mageck_Gene level) of 0.16 and a Low_lfc (Gene FBXO30, Mageck_Gene level) of 0.12. It also gave a Low_logP (Gene FBXO30, Mageck_Gene level) of 0.1, a High_lfc (Gene FBXO31, Mageck_Gene level) of 0.04 and a High_logP (Gene FBXO31, Mageck_Gene level) of 0.36. For the same compound, the Low_lfc (Gene FBXO31, Mageck_Gene level) was -0.01, the Low_logP (Gene FBXO31, Mageck_Gene level) was 0.26 and the High_lfc (Gene FBXO32, Mageck_Gene level) was 0.06. For the same compound, the High_logP (Gene FBXO32, Mageck_Gene level) was 0.08, the Low_lfc (Gene FBXO32, Mageck_Gene level) was 0.38 and the Low_logP (Gene FBXO32, Mageck_Gene level) was 0.68. The High_lfc (Gene FBXO33, Mageck_Gene level) was -0.54, the High_logP (Gene FBXO33, Mageck_Gene level) was 0 and the Low_lfc (Gene FBXO33, Mageck_Gene level) was -0.07. It also gave a Low_logP (Gene FBXO33, Mageck_Gene level) of 0.18, a High_lfc (Gene FBXO34, Mageck_Gene level) of 0.15 and a High_logP (Gene FBXO34, Mageck_Gene level) of 0.29. The Low_lfc (Gene FBXO34, Mageck_Gene level) was -0.13, the Low_logP (Gene FBXO34, Mageck_Gene level) was 0.33 and the High_lfc (Gene FBXO36, Mageck_Gene level) was -0.26. The High_logP (Gene FBXO36, Mageck_Gene level) was 0.21, the Low_lfc (Gene FBXO36, Mageck_Gene level) was 0.2 and the Low_logP (Gene FBXO36, Mageck_Gene level) was 0.47. For the same compound, the High_lfc (Gene FBXO38, Mageck_Gene level) was -0.33, the High_logP (Gene FBXO38, Mageck_Gene level) was 0.02 and the Low_lfc (Gene FBXO38, Mageck_Gene level) was 0.01. The Low_logP (Gene FBXO38, Mageck_Gene level) was 0.38, the High_lfc (Gene FBXO39, Mageck_Gene level) was 0.06 and the High_logP (Gene FBXO39, Mageck_Gene level) was 0.22. For the same compound, the Low_lfc (Gene FBXO39, Mageck_Gene level) was 0.01, the Low_logP (Gene FBXO39, Mageck_Gene level) was 0.18 and the “CRL substrate receptor scoring as top hit (gene required for BRD4 degradation)” value (KBM7 BRD4-BFP reporter cells, 9 0.5 µM, 10 1 µM, dBET6 10 nM, 6 hours) was “DCAF11”. The High_lfc (gene FBXO3) was 0.34, the High_logP (gene FBXO3) was 0.33 and the Low_lfc (gene FBXO3) was -0.08. For the same compound, the Low_logP (gene FBXO3) was 0.04, the High_lfc (gene FBXO4) was 0.05 and the High_logP (gene FBXO4) was 0.31. For the same compound, the Low_lfc (gene FBXO4) was -0.07, the Low_logP (gene FBXO4) was 0.01 and the High_lfc (gene FBXO5) was 0.23. It also gave a High_logP (gene FBXO5) of 0.83, a Low_lfc (gene FBXO5) of -0.27 and a Low_logP (gene FBXO5) of 0.05. It also gave a High_lfc (gene FBXO6) of -0.06, a High_logP (gene FBXO6) of 0.34 and a Low_lfc (gene FBXO6) of -0.26. The Low_logP (gene FBXO6) was 0.15, the High_lfc (gene FBXO7) was -0.21 and the High_logP (gene FBXO7) was 0. It also gave a Low_lfc (gene FBXO7) of -0.1, a Low_logP (gene FBXO7) of 0.14 and a High_lfc (gene FBXO8) of -0.41. The High_logP (gene FBXO8) was 0.01, the Low_lfc (gene FBXO8) was -0.3 and the Low_logP (gene FBXO8) was 0.02. For the same compound, the High_lfc (gene FBXO9) was -0.11, the High_logP (gene FBXO9) was 0.02 and the Low_lfc (gene FBXO9) was -0.13. For the same compound, the Low_logP (gene FBXO9) was 0.09, the High_lfc (gene FBXO40) was -0.14 and the High_logP (gene FBXO40) was 0.09. For the same compound, the Low_lfc (gene FBXO40) was -0.23, the Low_logP (gene FBXO40) was 0.3 and the High_lfc (gene FBXO41) was 0.03. For the same compound, the High_logP (gene FBXO41) was 0.17, the Low_lfc (gene FBXO41) was -0.11 and the Low_logP (gene FBXO41) was 0.05. The High_lfc (gene FBXO42) was 0.02, the High_logP (gene FBXO42) was 0.05 and the Low_lfc (gene FBXO42) was 0.34. The Low_logP (gene FBXO42) was 1.46, the High_lfc (gene FBXO43) was -0.17 and the High_logP (gene FBXO43) was 0.11. The Low_lfc (gene FBXO43) was -0.15, the Low_logP (gene FBXO43) was 0.08 and the High_lfc (gene FBXO44) was -0.16. For the same compound, the High_logP (gene FBXO44) was 0.39, the Low_lfc (gene FBXO44) was -0.37 and the Low_logP (gene FBXO44) was 0.19. For the same compound, the High_lfc (gene FBXO45) was -0.07, the High_logP (gene FBXO45) was 0.11 and the Low_lfc (gene FBXO45) was -0.31. For the same compound, the Low_logP (gene FBXO45) was 0.11, the High_lfc (gene FBXO46) was -0.12 and the High_logP (gene FBXO46) was 0.12. For the same compound, the Low_lfc (gene FBXO46) was 0.18, the Low_logP (gene FBXO46) was 0.84 and the High_lfc (gene FBXO47) was 0.35. It also gave a High_logP (gene FBXO47) of 0.59, a Low_lfc (gene FBXO47) of 0.65 and a Low_logP (gene FBXO47) of 1.14. The High_lfc (gene FBXO48) was -0.14, the High_logP (gene FBXO48) was 0.09 and the Low_lfc (gene FBXO48) was -0.68. It also gave a Low_logP (gene FBXO48) of 0.01, a High_lfc (gene FBXW2) of -0.16 and a High_logP (gene FBXW2) of 0.05. It also gave a Low_lfc (gene FBXW2) of -0.15, a Low_logP (gene FBXW2) of 0.23 and a High_lfc (gene FBXW4) of -0.23. For the same compound, the High_logP (gene FBXW4) was 0.02, the Low_lfc (gene FBXW4) was 0.1 and the Low_logP (gene FBXW4) was 0.3. For the same compound, the High_lfc (gene FBXW5) was -0.14, the High_logP (gene FBXW5) was 0.29 and the Low_lfc (gene FBXW5) was 0.04. The Low_logP (gene FBXW5) was 0.25, the High_lfc (gene FBXW7) was 0.42 and the High_logP (gene FBXW7) was 1.76. For the same compound, the Low_lfc (gene FBXW7) was 0.03, the Low_logP (gene FBXW7) was 0.22 and the High_lfc (gene FBXW8) was -0.01. For the same compound, the High_logP (gene FBXW8) was 0.23, the Low_lfc (gene FBXW8) was 0.37 and the Low_logP (gene FBXW8) was 0.66. For the same compound, the High_logP (gene FBXW9) was 0.71, the Low_logP (gene FBXW9) was 1.01 and the High_lfc (gene FBXW10) was -0.01. The High_logP (gene FBXW10) was 0.15, the Low_lfc (gene FBXW10) was -0.13 and the Low_logP (gene FBXW10) was 0.01. It also gave a High_lfc (gene FBXW11) of -0.15, a High_logP (gene FBXW11) of 0.05 and a Low_lfc (gene FBXW11) of -0.16. It also gave a Low_logP (gene FBXW11) of 0.14, a High_lfc (gene FBXW12) of -0.01 and a High_logP (gene FBXW12) of 0.11. The Low_lfc (gene FBXW12) was 0.06, the Low_logP (gene FBXW12) was 0.36 and the High_logP (gene FEM1A) was 0.33.
